Like-named read-outs stand apart in the source and are kept apart here.
Experiments:
pSTAT6 = biological target: T1, pSTAT6 (Homo sapiens, UniProt P42226); assay: MSD-pSTAT-PBMC Assay, pSTAT6 (IL-4 stimulated PBMC); format: cell-based
T1 construct: pY641-STAT6 MSD read-out
T1 sequence (P42226 1-847): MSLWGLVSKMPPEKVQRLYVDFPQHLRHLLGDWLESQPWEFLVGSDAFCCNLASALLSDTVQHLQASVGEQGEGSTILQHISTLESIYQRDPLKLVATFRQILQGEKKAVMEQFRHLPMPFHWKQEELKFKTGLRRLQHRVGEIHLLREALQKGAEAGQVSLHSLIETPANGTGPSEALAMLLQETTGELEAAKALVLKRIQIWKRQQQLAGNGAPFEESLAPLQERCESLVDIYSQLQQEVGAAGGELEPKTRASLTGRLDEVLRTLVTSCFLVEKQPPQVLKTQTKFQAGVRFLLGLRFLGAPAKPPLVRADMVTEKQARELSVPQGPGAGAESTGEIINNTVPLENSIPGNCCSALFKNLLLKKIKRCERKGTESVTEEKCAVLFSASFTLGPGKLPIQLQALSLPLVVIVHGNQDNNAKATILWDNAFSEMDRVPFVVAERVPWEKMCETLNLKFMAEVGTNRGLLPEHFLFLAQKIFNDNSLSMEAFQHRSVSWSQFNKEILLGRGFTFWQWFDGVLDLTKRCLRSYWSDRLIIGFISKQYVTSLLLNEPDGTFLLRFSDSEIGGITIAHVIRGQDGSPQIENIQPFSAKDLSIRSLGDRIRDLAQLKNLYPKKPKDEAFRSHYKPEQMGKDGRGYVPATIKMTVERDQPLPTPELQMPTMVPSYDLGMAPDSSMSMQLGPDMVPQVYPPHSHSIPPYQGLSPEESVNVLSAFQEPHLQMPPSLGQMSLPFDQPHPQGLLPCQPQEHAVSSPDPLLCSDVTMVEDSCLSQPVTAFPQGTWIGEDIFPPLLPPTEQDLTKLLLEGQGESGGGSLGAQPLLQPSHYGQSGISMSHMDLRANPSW
How it was run: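 Human PBMC were recovered overnight, treated 3 h with compound, then stimulated for 10 min with 10 ng/mL IL-6 (pSTAT3) or 1 ng/mL IL-4 (pSTAT6). Lysates were read by MSD sandwich immunoassay, with total STAT capture and pY705-STAT3 or pY641-STAT6 detection. Signal minus unstimulated wells was normalized to DMSO, and IC50 came from a variable-slope fit.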

pSTAT3 = biological target: T2, pSTAT3 (Homo sapiens, UniProt P40763); assay: MSD-pSTAT-PBMC Assay, pSTAT3 (IL-6 stimulated PBMC); format: cell-based
T2 construct: pY705-STAT3 MSD read-out
T2 sequence (P40763 whole entry): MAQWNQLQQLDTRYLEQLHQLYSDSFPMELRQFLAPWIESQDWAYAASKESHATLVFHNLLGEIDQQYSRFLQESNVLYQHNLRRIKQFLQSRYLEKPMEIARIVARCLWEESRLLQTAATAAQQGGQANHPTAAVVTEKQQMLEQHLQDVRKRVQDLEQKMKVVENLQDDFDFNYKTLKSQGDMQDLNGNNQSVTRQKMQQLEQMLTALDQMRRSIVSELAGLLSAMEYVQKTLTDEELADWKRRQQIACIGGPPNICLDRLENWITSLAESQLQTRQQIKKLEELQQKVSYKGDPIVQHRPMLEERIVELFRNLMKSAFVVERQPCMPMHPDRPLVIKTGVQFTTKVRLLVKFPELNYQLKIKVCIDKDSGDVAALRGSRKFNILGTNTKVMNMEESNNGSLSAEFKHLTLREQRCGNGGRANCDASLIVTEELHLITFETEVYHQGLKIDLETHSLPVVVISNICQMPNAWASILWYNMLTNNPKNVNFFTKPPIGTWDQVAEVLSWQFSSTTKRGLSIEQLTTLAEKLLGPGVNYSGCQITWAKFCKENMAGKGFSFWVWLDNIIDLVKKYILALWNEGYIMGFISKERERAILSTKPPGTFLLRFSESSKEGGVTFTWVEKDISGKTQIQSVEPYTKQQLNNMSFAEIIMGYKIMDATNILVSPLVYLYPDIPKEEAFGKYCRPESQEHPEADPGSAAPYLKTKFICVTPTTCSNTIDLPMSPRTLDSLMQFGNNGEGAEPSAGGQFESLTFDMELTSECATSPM
Source text: Cryopreserved Peripheral Blood Mononuclear Cells (PBMC) are from AllCells. Recombinant Human IL-4 and IL-6 are from Peprotech. Mouse monoclonal anti-STAT3 antibody, rabbit monoclonal anti-pY705-STAT3 antibody, rabbit monoclonal Anti-pY641-STAT6 antibody, and lysis buffer are from Cell Signaling Technology (CST). Mouse monoclonal anti-STAT6 antibody is from BioLegend. Assay plates, blocker, and anti-rabbit secondary antibody are from Meso Scale Discovery (MSD).
Cryopreserved PBMCs were thawed out and allowed to recover overnight in IMDM+10% heat-inactivated FBS prior to plating 50,000 (STAT3) or 25,000 (STAT6) cells per well in 96-well U-bottom tissue culture plates. Cells were treated with compound for 3 hrs. then stimulated with 10 ng/mL IL-6 (STAT3) or 1 ng/mL IL-4 (STAT6) for 10 min. Cells were then spun down and washed with ice-cold PBS prior to lysing the cell pellet with 1× lysis buffer (CST) with 1×HALT protease and phosphatase inhibitor cocktail (Thermo). Lysates were transferred to and incubated overnight at 4° C. with shaking in QuickPlex 96-well high bind assay plates (MSD) pre-coated overnight with 30 μL per well of 0.6 μg/mL mouse monoclonal anti-STAT3 antibody (STAT3) or 2 μg/mL mouse monoclonal anti-STAT6 antibody (STAT6) in 1×PBS, and pre-blocked for 1 hour with 3% Blocker-A (MSD). Captured protein in the assay plates were then washed and probed with 25 μL per well of 0.25 μg/ml rabbit monoclonal anti-pY705-STAT3 antibody (STAT3) or 0.18 μg/ml rabbit monoclonal Anti-pY641-STAT6 antibody (STAT6) in 1% Blocker-A for 1 hour at room temperature with shaking, then washed and probed with 25 ul per well of 1 ug/ml Sulfo-TAG Labeled Goat Anti-Rabbit Antibody (MSD) in 1% Blocker-A for 1 hour at room temperature with shaking. Assay plates were then washed and 150 μL of 1× Read Buffer-T (MSD) was added to each well prior to reading on an SQ120 MSD Plate Reader. Assay signal from each sample was subtracted by the signal from unstimulated control wells and normalized to DMSO control wells. IC50 values were calculated using Graph Pad Prism Dose-Response Nonlinear Regression with variable slope. For both pSTAT3 and pSTAT6 A=≤100 nM; B=>100-1000 nM; C=>1000-3000 nM; and D=>3 μM.

STAT6 = biological target: T3, STAT6 (Homo sapiens, UniProt P42226); assay: STAT6 Fluorescence Polarization (FP) Assay; format: binding; settings: recombinant STAT6(W123-T658) 250 nM; probe 5-FAM-Ap[…]-NH2 2 nM; 45 min, room temperature; read-out: STAT6 FP IC50
T3 construct: Recombinant STAT6 protein (STAT6(W123-T658))
T3 sequence (P42226 123-658): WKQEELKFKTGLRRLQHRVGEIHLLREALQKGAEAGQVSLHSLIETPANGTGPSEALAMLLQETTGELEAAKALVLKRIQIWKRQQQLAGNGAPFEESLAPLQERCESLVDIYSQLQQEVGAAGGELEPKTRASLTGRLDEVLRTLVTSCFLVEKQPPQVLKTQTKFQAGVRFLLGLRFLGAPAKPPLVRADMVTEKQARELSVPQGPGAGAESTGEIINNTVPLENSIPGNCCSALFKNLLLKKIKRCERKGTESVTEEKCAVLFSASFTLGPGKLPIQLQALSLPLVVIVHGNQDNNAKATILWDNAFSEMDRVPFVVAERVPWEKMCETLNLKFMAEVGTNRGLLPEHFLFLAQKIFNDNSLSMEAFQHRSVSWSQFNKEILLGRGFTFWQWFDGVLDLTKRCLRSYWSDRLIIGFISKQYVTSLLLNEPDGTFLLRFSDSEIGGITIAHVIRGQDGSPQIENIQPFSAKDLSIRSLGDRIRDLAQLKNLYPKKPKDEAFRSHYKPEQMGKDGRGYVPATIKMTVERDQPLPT
How it was run: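 STAT6(W123-T658) at 250 nM plus 2 nM 5-FAM phosphotyrosine peptide probe in HEPES pH 7.4 buffer with 2 mM DTT, 1% DMSO final. Polarization read after 45 min at room temperature. IC50 from nonlinear regression of mP against log concentration.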

STAT3 = biological target: T4, STAT3 (Homo sapiens, UniProt P40763); assay: STAT3 Fluorescence Polarization (FP) Assay; format: binding; settings: recombinant STAT3 25 nM; probe 5-FAM-GpYLPQTV-NH2 2 nM; 45 min, room temperature; read-out: STAT3 FP IC50
T4 construct: Recombinant STAT3 protein (STAT3(G127-1722))
T4 sequence (P40763 127-722 limits assumed): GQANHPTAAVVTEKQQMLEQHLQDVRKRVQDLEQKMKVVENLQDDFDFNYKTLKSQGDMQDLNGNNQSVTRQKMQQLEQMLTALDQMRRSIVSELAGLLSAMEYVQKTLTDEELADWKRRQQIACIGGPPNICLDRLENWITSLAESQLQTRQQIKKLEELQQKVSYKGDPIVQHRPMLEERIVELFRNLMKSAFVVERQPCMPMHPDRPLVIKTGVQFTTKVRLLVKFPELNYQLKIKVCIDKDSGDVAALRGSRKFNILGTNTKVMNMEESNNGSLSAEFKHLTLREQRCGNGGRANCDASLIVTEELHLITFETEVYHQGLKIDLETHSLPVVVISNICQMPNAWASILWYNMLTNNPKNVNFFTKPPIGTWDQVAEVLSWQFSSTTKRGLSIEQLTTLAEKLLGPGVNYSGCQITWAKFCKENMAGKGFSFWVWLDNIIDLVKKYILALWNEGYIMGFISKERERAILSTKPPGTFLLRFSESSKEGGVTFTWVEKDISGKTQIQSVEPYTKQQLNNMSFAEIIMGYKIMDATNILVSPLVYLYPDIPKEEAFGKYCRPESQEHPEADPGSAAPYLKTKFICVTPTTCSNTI

[1] = read-out: pSTAT6 IC50, compound 3 hrs, then 1 ng/mL IL-4 for 10 min, pY641-STAT6
[2] = read-out: pSTAT3 IC50, compound 3 hrs, then 10 ng/mL IL-6 for 10 min, pY705-STAT3
[3] = compound 3 hrs, then 10 ng/mL IL-6 for 10 min, pY705-STAT3, read-out: pSTAT3 IC50

| IC50 (pSTAT6; compound 3 hrs, then 1 ng/mL IL-4 for 10 min, pY641-STAT6, read-out: pSTAT6 IC50) | IC50 (pSTAT3; [3]) | IC50 (STAT6) | IC50 (STAT3) | SMILES | IC50 (pSTAT6; [1]) | IC50 (pSTAT3; [2]) |
| --- | --- | --- | --- | --- | --- | --- |
| – | – | – | – | CCCC(=O)SCCOP(=O)(OCCSC(=O)CCC)C(F)(F)c1ccc2ccc(C(=O)N[C@H]3CN(C(=O)c4n[nH]c5ccc(C)cc45)CC[C@H]4CC[C@@H](C(=O)NCCCCCCCCC(=O)N[C@H](C(=O)N5C[C@H](O)C[C@H]5C(=O)N[C@@H](C)c5ccc(-c6scnc6C)cc5)C(C)(C)C)N4C3=O)cc2c1 [Compound 8, S,S′-((((difluoro(7-(((5S,8S,10aR)-8-((9-(((S)-1-((2S,4R)-4-hydroxy-2-(((S)-1-(4-(4-methylthiazol-5-yl)phenyl)ethyl)carbamoyl)pyrrolidin-1-yl)-3,3-dimethyl-1-oxobutan-2-yl)amino)-9-oxononyl)carbamoyl)-3-(5-methyl-1H-indazole-3-carbonyl)-6-oxodecahydropyrrolo[1,2-a][1,5]diazocin-5-yl)carbamoyl)naphthalen-2-yl)methyl)phosphoryl)bis(oxy))bis(ethane-2,1-diyl)) dibutanethioate] | 1 to 3 µM | > 3 µM |
| – | – | – | – | CCCC(=O)SCCOP(=O)(OCCSC(=O)CCC)C(F)(F)c1ccc2ccc(C(=O)N[C@H]3CN(C(=O)c4n[nH]c5ccc(C)cc45)CC[C@H]4CC[C@@H](C(=O)NCCCCCCC#Cc5cccc6c5CN(C5CCC(=O)NC5=O)C6=O)N4C3=O)cc2c1 (stereo partly drawn) [Compound 10, S,S′-(((((7-(((5S,8S,10aR)-8-((8-(2-(2,6-dioxopiperidin-3-yl)-1-oxoisoindolin-4-yl)oct-7-yn-1-yl)carbamoyl)-3-(5-methyl-1H-indazole-3-carbonyl)-6-oxodecahydropyrrolo[1,2-a][1,5]diazocin-5-yl)carbamoyl)naphthalen-2-yl)difluoromethyl)phosphoryl)bis(oxy))bis(ethane-2,1-diyl)) dibutanethioate] | < 0.1 µM | > 3 µM |
| – | – | – | – | CCCC(=O)SCCOP(=O)(OCCSC(=O)CCC)C(F)(F)c1ccc2ccc(C(=O)N[C@H]3CN(C(=O)c4n[nH]c5ccc(C)cc45)CC[C@H]4CC[C@@H](C(=O)N(C)CCCCCCC#Cc5cccc6c5CN(C5CCC(=O)NC5=O)C6=O)N4C3=O)cc2c1 (stereo partly drawn) [Compound 12, S,S′-(((((7-(((5S,8S,10aR)-8-((8-(2-(2,6-dioxopiperidin-3-yl)-1-oxoisoindolin-4-yl)oct-7-yn-1-yl)(methyl)carbamoyl)-3-(5-methyl-1H-indazole-3-carbonyl)-6-oxodecahydropyrrolo[1,2-a][1,5]diazocin-5-yl)carbamoyl)naphthalen-2-yl)difluoromethyl)phosphoryl)bis(oxy))bis(ethane-2,1-diyl)) dibutanethioate] | < 0.1 µM | > 3 µM |
| – | – | – | – | CCCOC(=O)[C@H](C)NP(=O)(Oc1ccccc1)C(F)c1ccc2ccc(C(=O)N[C@H]3CN(C(=O)c4n[nH]c5ccc(C)cc45)CC[C@H]4CC[C@@H](C(=O)N(C)CCCCCCC#Cc5cccc6c5CN(C5CCC(=O)NC5=O)C6=O)N4C3=O)cc2c1 (stereo partly drawn) [Compound 13, propyl (((7-(((5S,8S,10aR)-8-((8-(2-(2,6-dioxopiperidin-3-yl)-1-oxoisoindolin-4-yl)oct-7-yn-1-yl)(methyl)carbamoyl)-3-(5-methyl-1H-indazole-3-carbonyl)-6-oxodecahydropyrrolo[1,2-a][1,5]diazocin-5-yl)carbamoyl)naphthalen-2-yl)fluoromethyl)(phenoxy)phosphoryl)-L-alaninate] | > 3 µM | > 3 µM |
| < 0.1 µM | > 3 µM | – | – | Cc1ccc2onc(C(=O)N3CC[C@H]4CC[C@@H](C(=O)N(C)CCCCCCC#Cc5cccc6c5CN(C5CCC(=O)NC5=O)C6=O)N4C(=O)[C@@H](NC(=O)c4ccc5ccc(C(F)(F)P(=O)(OCCSC(=O)CC(C)C)OCCSC(=O)CC(C)C)cc5c4)C3)c2c1 (stereo partly drawn) [Compound 21, S,S′-(((((7-(((5S,8S,10aR)-8-((8-(2-(2,6-dioxopiperidin-3-yl)-1-oxoisoindolin-4-yl)oct-7-yn-1-yl)(methyl)carbamoyl)-3-(5-methylbenzo[d]isoxazole-3-carbonyl)-6-oxodecahydropyrrolo[1,2-a][1,5]diazocin-5-yl)carbamoyl)naphthalen-2-yl)difluoromethyl)phosphoryl)bis(oxy))bis(ethane-2,1-diyl)) bis(3-methylbutanethioate)] | – | – |
| – | 0.1 to 1 µM | 3 to 30 µM | < 0.1 µM | CN(C)c1ccncc1C1CN(C(=O)[C@@H]2CC[C@@H]3CCN(C(=O)CCCCCC#Cc4cccc5c4CN(C4CCC(=O)NC4=O)C5=O)C[C@H](NC(=O)c4cc5cc(C(F)(F)P(=O)(O)O)ccc5s4)C(=O)N32)C1 (stereo partly drawn) [Compound 39, ((2-(((5S,8S,10aR)-8-(3-(4-(dimethylamino)pyridin-3-yl)azetidine-1-carbonyl)-3-(8-(2-(2,6-dioxopiperidin-3-yl)-1-oxoisoindolin-4-yl)oct-7-ynoyl)-6-oxodecahydropyrrolo[1,2-a][1,5]diazocin-5-yl)carbamoyl)benzo[b]thiophen-5-yl)difluoromethyl)phosphonic acid] | – | – |
